Experimental findings from patent publication US6867207B2, “IL-5 inhibiting 6-azauracil derivatives” (Janssen Pharmaceutica N.V., priority 1997, dated 2005) are described below.

The first test deals with IL-5 production. The test is described as follows: In vitro inhibition of IL-5 production in human blood (phytohemagglutinin-stimulated whole blood, ELISA).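 Note: values marked with an asterisk were tested at 10 µM and unmarked values at 1 µM.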 It counts as cell-based. Particulars: test dose 1×10^−6 M, 48 hours. An outline of the steps:
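Heparinised blood from healthy male donors, diluted threefold in RPMI 1640, preincubated 60 min at 37° C with compound (0.02% DMSO vehicle), then stimulated with 2 μg/mL phytohemagglutinin for 48 h. Supernatant IL-5 measured by ELISA; percentage inhibition at 1×10^−6 M or 1×10^−5 M.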
For the compound `Cc1nc(-c2ccccc2)c(C(c2ccc(Cl)cc2)c2ccc(-n3ncc(=O)[nH]c3=O)cc2Cl)s1` (racemic) [Compound 134], the “% inh. (percentage inhibition of IL-5 production)” value was 95%.

`Cc1nc(-c2ccccc2Cl)c(C(c2ccc(Cl)cc2)c2c(Cl)cc(-n3ncc(=O)[nH]c3=O)cc2Cl)s1` (racemic) [Compound 135]: the “% inh. (percentage inhibition of IL-5 production)” value turned out to be 88%.

Regarding `Cc1nc(-c2ccccc2)c(C(c2ccc(Cl)cc2)c2c(Cl)cc(-n3ncc(=O)[nH]c3=O)cc2Cl)s1` (racemic) [Compound 136], the “% inh. (percentage inhibition of IL-5 production)” value is on record as 93%.

On to `Cc1nc(-c2ccccc2Cl)sc1C(c1ccc(Cl)cc1)c1c(Cl)cc(-n2ncc(=O)[nH]c2=O)cc1Cl` (racemic) [Compound 137], for which the “% inh. (percentage inhibition of IL-5 production)” value is 64%.

For the compound `Cc1nc(-c2ccccc2)sc1C(c1ccc(Cl)cc1)c1c(Cl)cc(-n2ncc(=O)[nH]c2=O)cc1Cl` (racemic) [Compound 138], the “% inh. (percentage inhibition of IL-5 production)” value amounted to 81%.

Turning to `Cc1nc(-c2ccccc2Cl)c(C(c2ccc(Cl)cc2)c2ccc(-n3ncc(=O)[nH]c3=O)cc2Cl)s1` (racemic) [Compound 139], the “% inh. (percentage inhibition of IL-5 production)” value is 60%.

On to `O=c1cnn(-c2ccc(C(c3ccc(Cl)cc3)c3sc(-c4ccccc4)nc3-c3ccccc3)c(Cl)c2)c(=O)[nH]1` (racemic) [Compound 140], for which the “% inh. (percentage inhibition of IL-5 production)” value is 45%.

As for `O=c1cnn(-c2ccc(C(c3ccc(Cl)cc3)c3cnc(-c4ccccc4)s3)c(Cl)c2)c(=O)[nH]1` (racemic) [Compound 141], the “% inh. (percentage inhibition of IL-5 production)” value worked out at 64%.

Regarding `O=c1cnn(-c2cc(Cl)c(C(c3ccc(Cl)cc3)c3cnc(-c4ccccc4)s3)c(Cl)c2)c(=O)[nH]1` (racemic) [Compound 142], the “% inh. (percentage inhibition of IL-5 production)” value is on record as 80%.

For the compound `Cc1nc(-c2cccc(F)c2)c(C(c2ccc(Cl)cc2)c2ccc(-n3ncc(=O)[nH]c3=O)cc2Cl)s1` (racemic) [Compound 143], the “% inh. (percentage inhibition of IL-5 production)” value amounted to 81%.

In the case of `O=c1cnn(-c2ccc(C(c3ccc(Cl)cc3)c3sc(-c4ccccc4)nc3-c3ccccc3Cl)c(Cl)c2)c(=O)[nH]1` (racemic) [Compound 144], the “% inh. (percentage inhibition of IL-5 production)” value was found to be 40%.

In the case of `O=c1cnn(-c2cc(Cl)c(C(c3ccc(Cl)cc3)c3sc(-c4ccccc4)nc3-c3ccccc3Cl)c(Cl)c2)c(=O)[nH]1` (racemic) [Compound 145], the “% inh. (percentage inhibition of IL-5 production)” value is 37%.

Consider `Cc1nc(-c2ccccc2)c(C(c2ccc(Cl)cc2)c2ccc(-n3ncc(=O)[nH]c3=O)cc2)s1` (racemic) [Compound 146], for which the “% inh. (percentage inhibition of IL-5 production)” value was 83%.

In the case of `O=c1cnn(-c2cc(Cl)c(C(c3ccc(Cl)cc3)c3sc(-c4ccccc4Cl)nc3-c3ccccc3Cl)c(Cl)c2)c(=O)[nH]1` (racemic) [Compound 147], the “% inh. (percentage inhibition of IL-5 production)” value came out at 50%.

For `O=c1cnn(-c2ccc(C(c3ccc(Cl)cc3)c3scnc3-c3cccc(F)c3)c(Cl)c2)c(=O)[nH]1` (racemic) [Compound 148], the “% inh. (percentage inhibition of IL-5 production)” value was found to be 79%.

As to `Cc1nc(-c2ccc(Cl)cc2)c(C(c2ccc(Cl)cc2)c2ccc(-n3ncc(=O)[nH]c3=O)cc2Cl)s1` (racemic) [Compound 149], the “% inh. (percentage inhibition of IL-5 production)” value stood at 89%.

Take `O=c1cnn(-c2ccc(C(c3ccc(Cl)cc3)c3sc(-c4ccccc4Cl)nc3-c3ccccc3)c(Cl)c2)c(=O)[nH]1` (racemic) [Compound 150]: the “% inh. (percentage inhibition of IL-5 production)” value was 48%.

Staying with this test, now noted: test dose 1×10^−6 M, 48 hours, read-out: % inh. (percentage inhibition of IL-5 production).
`CC(c1ccc(Cl)cc1)(c1nc2ccccc2o1)c1ccc(-n2ncc(=O)[nH]c2=O)cc1Cl` (racemic) [Compound 132, (±)-2-[3-chloro-4-[1-(4-chlorophenyl)-1-(2-benzoxazolyl)ethyl]phenyl]-1,2,4-triazine-3,5(2H,4H)-dione]: the inhibition at 1 µM came to 55%.

`CC(C)COC(c1ccc(Cl)cc1)c1ccc(-n2ncc(=O)[nH]c2=O)cc1Cl` (racemic) [Compound 133, (±)-2-[3-chloro-4-[(4-chloro-phenyl)(2-methylpropoxy)methyl]phenyl]-1,2,4-triazine-3,5(2H,4H)-dione]: the inhibition at 1 µM is 50%.

Broadly, the inhibition is how much of the control response was suppressed.
